Experimental data from article PMC12661400, “Oral bioavailable ITRI-148 degrades androgen receptor variants and overcomes antiandrogen resistance in advanced prostate cancer” (Neoplasia (New York, N.Y.), 2025).
Where two headings read alike, the source gives them in different places.

Columns and labels:
[1] = Repeated-dose toxicity study: absolute organ weights; assay type: in vivo, Sprague-Dawley rats; conditions: rats
Description: (§1) Repeated-dose toxicity and toxicokinetic studies
(§2) Repeated-dose oral toxicity study and toxicokinetic (TK) profiling was conducted in Sprague-Dawley rats. ITRI-148 was administered once daily using oral gavage at doses of 100, 300, 600, and 1000 mg/kg/day for 7 consecutive days, followed by a 7-day recovery period. Each dose group comprised 3 animals designated for toxicokinetic (TK) analysis and 6 animals for dose-range finding (DRF) evaluation. Clinical observations, body weights, and food consumption were monitored daily throughout the dosing and recovery periods. […]
(§3) All samples were analyzed in duplicate. Hematology and serum clinical chemistry analyses were performed on Day 7 (end of dosing) and Day 14 (end of recovery). At necropsy, organ weights (including heart, liver, kidney, spleen, thymus, and adrenal glands) were recorded, and gross pathological changes were examined. All procedures were conducted in compliance with institutional animal care and use guidelines. […]
(§4) Targeting androgen receptor and the variants by an orally bioavailable
(§5) Proteolysis Targeting Chimeras compound in castration resistant prostate cancer

CWR22Rv1 cell = CWR22Rv1 cell viability after 3 days of 10 μM compound (linker screen); assay type: cell-based; conditions: 72 h, CWR22Rv1, 10 μM compound
[2] = Repeated-dose toxicity study: hematology; assay type: in vivo, Sprague-Dawley rats; conditions: rats
Description: as §1, §2
All samples were analyzed in duplicate. Hematology and serum clinical chemistry analyses were performed on Day 7 (end of dosing) and Day 14 (end of recovery). […]
(§6) All procedures were conducted in compliance with institutional animal care and use guidelines. […]
as §4, §5

[3] = Toxicokinetic profiling in rats; assay type: in vivo; conditions: Sprague-Dawley, rat, plasma, po; for AUC: read-out: AUC24
Description: as §1
Repeated-dose oral toxicity study and toxicokinetic (TK) profiling was conducted in Sprague-Dawley rats. ITRI-148 was administered once daily using oral gavage at doses of 100, 300, 600, and 1000 mg/kg/day for 7 consecutive days, followed by a 7-day recovery period. Each dose group comprised 3 animals designated for toxicokinetic (TK) analysis and 6 animals for dose-range finding (DRF) evaluation. Clinical observations, body weights, and food consumption were monitored daily throughout the dosing and recovery periods. After the first (Day 0) and last (Day 6) dosing, serial blood samples were collected at the pose-dose time points of 0.5, 1, 2, 4, 7, 24, 48 and 72 hours for TK profiling analysis. Plasma concentrations of ITRI-148 were quantified using a validated LC-MS/MS method. Analysis was performed using a Sciex QTrap 4000 mass spectrometer coupled with a Shimadzu LC system. The chromatographic separation was achieved on a C18 reverse-phase column with a gradient elution of acetonitrile and 0.1% formic acid in water. The lower limit of quantification (LLOQ) […]
was 5 ng/mL. All samples were analyzed in duplicate. […]
as §6, §4, §5

[4] = Repeated-dose toxicity study: mortality, body weight, tolerability; assay type: in vivo
Description: as §1, §2, §3, §4, §5

[5] = PO 100 mg/kg/day 7 days, Day 14 (recovery)
[6] = PO 300 mg/kg/day 7 days, Day 14 (recovery)
[7] = PO 600 mg/kg/day 7 days, Day 14 (recovery)
[8] = PO 1000 mg/kg/day 7 days, Day 7
[9] = PO 1000 mg/kg/day 7 days, Day 14 (recovery)
[10] = 100 mg/kg, 7-times repeated dosing 100 mg/kg
[11] = 100 mg/kg, single dosing 100 mg/kg
[12] = 300 mg/kg, 7-times repeated dosing 300 mg/kg
[13] = 300 mg/kg, single dosing 300 mg/kg
[14] = 600 mg/kg, 7-times repeated dosing 600 mg/kg
[15] = 600 mg/kg, single dosing 600 mg/kg
[16] = 1000 mg/kg, 7-times repeated dosing 1000 mg/kg
[17] = 1000 mg/kg, single dosing 1000 mg/kg

O=C1CCC(N2C(=O)c3cccc(NCC(=O)N4CCC(N5CCC(C#Cc6ccc(C7CCN(C8=Nn9c(nnc9C(F)(F)F)CC8)CC7)cc6)CC5)CC4)c3C2=O)C(=O)N1 (centres unmarked) [ITRI-148]
Absolute organ weight: Heart ([1]; PO 100 mg/kg/day 7 days, Day 7): 1.417 ± 0.443 g | Absolute organ weight: Kidney ([1]; PO 100 mg/kg/day 7 days, Day 7): 2.656 ± 0.136 g | Absolute organ weight: Liver ([1]; PO 100 mg/kg/day 7 days, Day 7): 13.915 ± 1.565 g | Absolute organ weight: Spleen ([1]; PO 100 mg/kg/day 7 days, Day 7): 0.536 ± 0.112 g | Absolute organ weight: Thymus ([1]; PO 100 mg/kg/day 7 days, Day 7): 0.419 ± 0.079 g | Absolute organ weight: adrenal glands ([1]; PO 100 mg/kg/day 7 days, Day 7): 0.056 ± 0.012 g | Absolute organ weight: Heart [1, 5]: 1.139 ± 0.079 g | Absolute organ weight: Kidney [1, 5]: 2.65 ± 0.021 g | Absolute organ weight: Liver [1, 5]: 11.06 ± 0.639 g | Absolute organ weight: Spleen [1, 5]: 0.538 ± 0.05 g | Absolute organ weight: Thymus [1, 5]: 0.319 ± 0.039 g | Absolute organ weight: adrenal glands [1, 5]: 0.084 ± 0.059 g | Absolute organ weight: Heart ([1]; PO 300 mg/kg/day 7 days, Day 7): 1.369 ± 0.173 g | Absolute organ weight: Kidney ([1]; PO 300 mg/kg/day 7 days, Day 7): 2.966 ± 0.426 g | Absolute organ weight: Liver ([1]; PO 300 mg/kg/day 7 days, Day 7): 13.69 ± 1.088 g | Absolute organ weight: Spleen ([1]; PO 300 mg/kg/day 7 days, Day 7): 0.558 ± 0.035 g | Absolute organ weight: Thymus ([1]; PO 300 mg/kg/day 7 days, Day 7): 0.377 ± 0.079 g | Absolute organ weight: adrenal glands ([1]; PO 300 mg/kg/day 7 days, Day 7): 0.058 ± 0.022 g | Absolute organ weight: Heart [1, 6]: 1.252 ± 0.229 g | Absolute organ weight: Kidney [1, 6]: 2.748 ± 0.366 g | Absolute organ weight: Liver [1, 6]: 12.08 ± 0.721 g | Absolute organ weight: Spleen [1, 6]: 0.629 ± 0.088 g | Absolute organ weight: Thymus [1, 6]: 0.314 ± 0.042 g | Absolute organ weight: adrenal glands [1, 6]: 0.06 ± 0.016 g | Absolute organ weight: Heart ([1]; PO 600 mg/kg/day 7 days, Day 7): 1.269 ± 0.209 g | Absolute organ weight: Kidney ([1]; PO 600 mg/kg/day 7 days, Day 7): 2.661 ± 0.129 g | Absolute organ weight: Liver ([1]; PO 600 mg/kg/day 7 days, Day 7): 13.396 ± 2.201 g | Absolute organ weight: Spleen ([1]; PO 600 mg/kg/day 7 days, Day 7): 0.509 ± 0.093 g | Absolute organ weight: Thymus ([1]; PO 600 mg/kg/day 7 days, Day 7): 0.319 ± 0.054 g | Absolute organ weight: adrenal glands ([1]; PO 600 mg/kg/day 7 days, Day 7): 0.058 ± 0.001 g | Absolute organ weight: Heart [1, 7]: 1.242 ± 0.08 g | Absolute organ weight: Kidney [1, 7]: 2.759 ± 0.179 g | Absolute organ weight: Liver [1, 7]: 12.382 ± 0.877 g | Absolute organ weight: Spleen [1, 7]: 0.594 ± 0.066 g | Absolute organ weight: Thymus [1, 7]: 0.394 ± 0.041 g | Absolute organ weight: adrenal glands [1, 7]: 0.07 ± 0.027 g | Absolute organ weight: Heart [1, 8]: 1.259 ± 0.118 g | Absolute organ weight: Kidney [1, 8]: 3.022 ± 0.127 g | Absolute organ weight: Liver [1, 8]: 13.349 ± 1.256 g | Absolute organ weight: Spleen [1, 8]: 0.388 ± 0.035 g | Absolute organ weight: Thymus [1, 8]: 0.121 ± 0.021 g | Absolute organ weight: adrenal glands [1, 8]: 0.068 ± 0.012 g | Absolute organ weight: Heart [1, 9]: 1.306 ± 0.066 g | Absolute organ weight: Kidney [1, 9]: 2.763 ± 0.229 g | Absolute organ weight: Liver [1, 9]: 11.072 ± 0.774 g | Absolute organ weight: Spleen [1, 9]: 0.506 ± 0.023 g | Absolute organ weight: Thymus [1, 9]: 0.355 ± 0.119 g | Absolute organ weight: adrenal glands [1, 9]: 0.062 ± 0.009 g | viability at 10 µM (CWR22Rv1 cell): 1.71% | HGB ([2]; PO 100 mg/kg/day 7 days, Day 7): 20.3 ± 0.2 g/dL | PLT ([2]; PO 100 mg/kg/day 7 days, Day 7): 915 ± 368 x103 cells/µL | RBC ([2]; PO 100 mg/kg/day 7 days, Day 7): 7.51 ± 0.13 x106 cells/µL | WBC ([2]; PO 100 mg/kg/day 7 days, Day 7): 8.72 ± 2.37 x103 cells/µL | HGB [2, 5]: 21.9 ± 3.2 g/dL | PLT [2, 5]: 1049 ± 231 x103 cells/µL | RBC [2, 5]: 8.18 ± 1.17 x106 cells/µL | WBC [2, 5]: 7.52 ± 5.51 x103 cells/µL | HGB ([2]; PO 300 mg/kg/day 7 days, Day 7): 20 ± 1.4 g/dL | PLT ([2]; PO 300 mg/kg/day 7 days, Day 7): 956 ± 108 x103 cells/µL | RBC ([2]; PO 300 mg/kg/day 7 days, Day 7): 7.15 ± 0.4 x106 cells/µL | WBC ([2]; PO 300 mg/kg/day 7 days, Day 7): 8.19 ± 2.89 x103 cells/µL | HGB [2, 6]: 24.1 ± 0.4 g/dL | PLT [2, 6]: 1128 ± 236 x103 cells/µL | RBC [2, 6]: 8.91 ± 0.17 x106 cells/µL | WBC [2, 6]: 9.56 ± 1.57 x103 cells/µL | HGB ([2]; PO 600 mg/kg/day 7 days, Day 7): 20.6 ± 1.9 g/dL | PLT ([2]; PO 600 mg/kg/day 7 days, Day 7): 986 ± 252 x103 cells/µL | RBC ([2]; PO 600 mg/kg/day 7 days, Day 7): 7.51 ± 0.53 x106 cells/µL | WBC ([2]; PO 600 mg/kg/day 7 days, Day 7): 8.68 ± 4.58 x103 cells/µL | HGB [2, 7]: 21.6 ± 0.8 g/dL | PLT [2, 7]: 1022 ± 446 x103 cells/µL | RBC [2, 7]: 7.87 ± 0.45 x106 cells/µL | WBC [2, 7]: 5.27 ± 2.39 x103 cells/µL | HGB [2, 8]: 20.7 ± 1.3 g/dL | PLT [2, 8]: 892 ± 66 x103 cells/µL | RBC [2, 8]: 7.52 ± 0.31 x106 cells/µL | WBC [2, 8]: 7.48 ± 2.72 x103 cells/µL | HGB [2, 9]: 21.6 ± 1 g/dL | PLT [2, 9]: 1140 ± 222 x103 cells/µL | RBC [2, 9]: 8.33 ± 0.35 x106 cells/µL | WBC [2, 9]: 8.28 ± 0.31 x103 cells/µL | AUC(0-t) [3, 10]: 8750 ng·h/mL | Cmax [3, 10]: 561 ± 62.1 ng/mL | AUC [3, 10]: 8330 ng·h/mL | AUC(0-t) [3, 11]: 9300 ng·h/mL | Cmax [3, 11]: 466 ± 13.6 ng/mL | AUC [3, 11]: 7670 ng·h/mL | AUC(0-t) [3, 12]: 20500 ng·h/mL | Cmax [3, 12]: 1050 ng/mL | AUC [3, 12]: 17000 ng·h/mL | AUC(0-t) [3, 13]: 20100 ng·h/mL | Cmax [3, 13]: 659 ± 184 ng/mL | AUC [3, 13]: 13000 ng·h/mL | AUC(0-t) [3, 14]: 35200 ng·h/mL | Cmax [3, 14]: 1440 ng/mL | AUC [3, 14]: 25200 ng·h/mL | AUC(0-t) [3, 15]: 27100 ng·h/mL | Cmax [3, 15]: 914 ± 296 ng/mL | AUC [3, 15]: 15100 ng·h/mL | AUC(0-t) [3, 16]: 56000 ng·h/mL | Cmax [3, 16]: 1910 ng/mL | AUC [3, 16]: 36600 ng·h/mL | AUC(0-t) [3, 17]: 40400 ng·h/mL | Cmax [3, 17]: 1000 ng/mL | AUC [3, 17]: 17400 ng·h/mL | margin of maximum rat dose (1000 mg/kg) over the efficacious dose used in xenograft model ([4]; rat, in vivo): > 10 fold | body weight loss ([4]; rats, PO 100-1000 mg/kg/day, any treatment group): No animal exhibited >10% weight loss in any treatment group
